Laboratory results as given in patent US20040038958A1, “Topical treatment of skin diseases” (priority 2002, published 2004).
“And” between values parts separate entries of the source, which are not always exact repeats. Identical values can stand only once. “Also recorded” adds a separate entry of the source.

Legend:
[1] = system: interleukin 4; assay: IL-4 in homogenized mouse ears after TDI challenge (ELISA); type: in vivo, BALB/c-mice
Experimental: (§1) One part of the collected ears was fixed in 4% formaldehyde for histological section and stained with haematoxylin-eosin with respect to dermal thickness and granulocyte accumulation. These parameters were measured in 10 fields at 40 times magnification. The remaining tissue was shock-frozen and stored in liquid nitrogen immediately after sampling. For the determination of biochemical parameters, the mice ears were homogenized under liquid nitrogen. The homogenates were taken in 200 μl RPMI 1640 medium and the protease inhibitor Pefabloc® (1 mmol) was added and the samples were mixed intensively. After centrifugation (10000 g, 10 min, 4° C.), the supernatant was collected and the protein content was determined. The samples were stored at −80° C. until the cytokines were determined. Interleukin (IL) 4, IL-6 and MIP-2 were measured in the samples by ELISA using commercially available kits according to manufacturers instructions.

[2] = system: interleukin 6; assay: IL-6 in homogenized mouse ears after TDI challenge (ELISA); type: in vivo, BALB/c-mice
Experimental: as §1

[3] = system: human eosinophils; settings: in vitro; Ezeamuzie, 2001; cited from earlier work
[4] = 24 h after TDI challenge, AWD 12-281 3%, rechallenge
[5] = 24 h after TDI challenge, topical 2 h before challenge, AWD 12-281 1%, cilomilast 3%, diflorasone 0.05%
[6] = AWD 12-281 3%, cilomilast 3%, diflorasone 0.05%, 24 h after TDI challenge

## O=C(Nc1c(Cl)cncc1Cl)C(=O)c1cn(Cc2ccc(F)cc2)c2ccc(O)cc12 [AWD 12-281, N-(3,5-Dichloro-4-pyridinyl)-2-[1-(4-fluoro-benzyl)-5-hydroxy-1 H-indol-3-yl]-2-oxoacetamide]
[1]; [4]
  concentration of interleukin 4 in mouse skin: inhibited the increase significantly
[1]; [5]
  concentration of interleukin 4 in homogenized mouse ears: reduced the increase slightly; also recorded: slight inhibitory effect
[1]; [6]
  IL-4, mean inhibition (%) of the TDI induced synthesis: 80% and 81%
[1]; AWD 12-281 3%, homogenized mouse ears 24 h after TDI challenge (rechallenge), vehicle control 67 ± 2, mean ± s.e.
  IL-4: 12 ± 3 pg/400 µg protein
[2]; [4]
  concentration of interleukin 6 in mouse skin: inhibited this response significantly
[2]; [5]
  concentration of interleukin 6 in homogenized mouse ears: weak significantly; also recorded: inhibited this response significantly; also recorded: only a slight effect
[2]; [6]
  IL-6, mean inhibition (%) of the TDI induced synthesis: 52%
[2]; AWD 12-281 3%, homogenized mouse ears 24 h after TDI challenge (rechallenge), vehicle control 89 ± 5, mean ± s.e.
  IL-6: 42 ± 6 pg/400 µg protein
[3]
  degranulation of human eosinophils: inhibited the degranulation
